Source: ChEMBL document CHEMBL1134026, “Synthesis and evaluation of novel amidate prodrugs of PMEA and PMPA” (Bioorg Med Chem Lett, 2001)

What was measured:
[1] = tested on: MT4; test: In vitro antiviral activity against HIV-1 in MT-4 cells; assay type: functional, cell-based; details: Homo sapiens
[2] = tested on: MT4; test: In vitro antiviral activity against HIV-2 in MT-4 cells; assay type: functional, cell-based; details: Homo sapiens
[3] = In vitro cytotoxic concentration against MT-4 cells; assay type: cell-based, MT4; details: human
[4] = tested on: CCRF-CEM; test: In vitro antiviral activity against HIV-1 in CEM cells; assay type: functional, cell-based; details: Homo sapiens
[5] = tested on: CCRF-CEM; test: In vitro antiviral activity against HIV-2 in CEM cells; assay type: functional, cell-based; details: Homo sapiens
[6] = In vitro cytotoxic concentration against CEM cells; assay type: cell-based, CCRF-CEM; details: human

Work on `COC(=O)CNP(=O)(CO[C@H](C)Cn1cnc2c(N)ncnc21)Oc1ccccc1` (stereo partly specified) yielded an EC50 [1] of 0.58 µM, an EC50 [2] of 0.15 µM and a CC50 [3] of 102 µM. The EC50 [4] was 0.23 µM, the EC50 [5] was 0.31 µM and the CC50 [6] was 88.5 µM.
`COC(=O)[C@@H](C)NP(=O)(CO[C@H](C)Cn1cnc2c(N)ncnc21)Oc1ccccc1` (stereo partly specified) gave an EC50 [1] of 0.029 µM, an EC50 [2] of 0.026 µM and a CC50 [3] of 71.4 µM. It also gave an EC50 [4] of 0.053 µM, an EC50 [5] of 0.09 µM and a CC50 [6] of 27 µM.
With `C[C@H](Cn1cnc2c(N)ncnc21)OCP(=O)(Oc1ccccc1)Oc1ccccc1` the EC50 [1] was 6.2 µM, the EC50 [2] was 4.9 µM and the CC50 [3] was over 250 µM. It also gave an EC50 [4] of 4 µM, an EC50 [5] of 4 µM and a CC50 [6] of over 250 µM.
Compound `C[C@H](Cn1cnc2c(N)ncnc21)OCP(=O)(O)O` [TENOFOVIR ANHYDROUS] has an EC50 [1] of 2.3 µM, an EC50 [2] of 1.4 µM and a CC50 [3] of 197 µM. The EC50 [4] was 3.67 µM, the EC50 [5] was 3.67 µM and the CC50 [6] was over 250 µM.
Work on `COC(=O)[C@@H](C)NP(=O)(CO[C@H](C)Cn1cnc2c(N)ncnc21)Oc1ccc(Cl)cc1` (stereo partly specified) yielded an EC50 [1] of 0.15 µM, an EC50 [2] of 0.26 µM and a CC50 [3] of 57 µM. For the same compound, the EC50 [4] was 0.2 µM, the EC50 [5] was 0.12 µM and the CC50 [6] was 106 µM.
Compound `Nc1ncnc2c1ncn2CCOCP(=O)(O)O` [ADEFOVIR] has an EC50 [1] of 7 µM, an EC50 [2] of 7.5 µM and a CC50 [3] of 144 µM. The EC50 [4] was 7 µM, the EC50 [5] was 10 µM and the CC50 [6] was 69 µM.
Work on `COC(=O)CNP(=O)(COCCn1cnc2c(N)ncnc21)Oc1ccccc1` (stereo unspecified) yielded an EC50 [1] of 3.6 µM, an EC50 [2] of 4.8 µM and a CC50 [3] of 120 µM. It also gave an EC50 [4] of 5.6 µM, an EC50 [5] of 4.5 µM and a CC50 [6] of 80 µM.
Compound `COC(=O)[C@@H](C)NP(=O)(COCCn1cnc2c(N)ncnc21)Oc1ccccc1` (stereo partly specified) has an EC50 [1] of 0.23 µM, an EC50 [2] of 0.15 µM and a CC50 [3] of 5.1 µM. For the same compound, the EC50 [4] was 0.12 µM, the EC50 [5] was 0.2 µM and the CC50 [6] was 3.7 µM.
With `COC(=O)[C@H](C)NP(=O)(CO[C@H](C)Cn1cnc2c(N)ncnc21)Oc1ccccc1` (stereo partly specified) the EC50 [1] was 0.99 µM, the EC50 [2] was 0.65 µM and the CC50 [3] was 213 µM. For the same compound, the EC50 [4] was 0.5 µM, the EC50 [5] was 0.38 µM and the CC50 [6] was 125 µM.
`COC(=O)[C@@H](Cc1ccccc1)NP(=O)(CO[C@H](C)Cn1cnc2c(N)ncnc21)Oc1ccc(Cl)cc1` (stereo partly specified) gave an EC50 [1] of 0.04 µM, an EC50 [2] of 0.07 µM and a CC50 [3] of 64 µM. It also gave an EC50 [4] of 0.07 µM, an EC50 [5] of 0.06 µM and a CC50 [6] of 26 µM.
Work on `COC(=O)[C@H](C)NP(=O)(COCCn1cnc2c(N)ncnc21)Oc1ccccc1` (stereo partly specified) yielded an EC50 [1] of 15 µM, an EC50 [2] of 7.2 µM and a CC50 [3] of 120 µM. For the same compound, the EC50 [4] was 5 µM, the EC50 [5] was 6 µM and the CC50 [6] was 67 µM.
